What was measured:
CHCM1/CHCHD6 mRNA [1] = assay: Northern blot of CHCM1/CHCHD6 mRNA after genotoxic drug treatment; type: cell-based, human
Procedure: (§1) Northern blot analyses were done according to standard procedure (23, 24). Briefly, total RNA was extracted by Trizol reagent (Invitrogen, Carlsbad, Calif.) and ˜15 μg of total RNA were size-separated on 1.2% agarose gel and transferred to nylon membrane (Whatman, GE Health care, Piscataway, N.J.). Human CHCM1/CHCHD6 cDNA probe was labeled with ^32P and hybridization was performed in QuikHyb solution (Stratagene, La Jolla, Calif.) at 65° C.

[2] = test system: CHCM1/CHCHD6 protein levels; assay: Western blot of CHCM1/CHCHD6 protein levels after drug treatment; type: cell-based, human
Procedure: (§2) Western blotting and immunoprecipitations were done by standard procedures as previously described (25, 26). S-tag pull down experiments were performed using human cancer cells as well as bacterial lysates. Cell pellets were prepared and lysed in lysis buffer (50 mM Tris-HCl, pH 7.4, 120 mM NaCl, 0.1% NP-40, 10 mM NaF, 5 mM EDTA, 2 mM Na3VO4, 2 mM MgCl2, 10 mM KCl, 25 mM glycerophosphate, protease inhibitor cocktail, okadic acid and 1 mM PMSF) and S-tag pull down was performed by using S-protein agarose beads (Novagen, EMD Chemicals Group, Darmstadt, Germany) according to manufacturer's protocol. For S-tag pull down using bacterial lysates, wild type and deletion variants of S-tagged CHCM1/CHCHD6 were expressed in E. coli BL21 (DE3) and induced by 1 mM IPTG (isopropyl-1-thio-β-D-galactopyranoside) at 30° C. for 6 hr. Bacteria were lysed in a buffer containing 28 mM Tris, 135 mM NaCl, 1 mM dithiothreitol (DTT), 1% Triton-X 100 (w/v), protease inhibitor cocktail and 400 μg/ml […] for 30 min at room temperature, followed by 26,000×g centrifugation for 30 min (Sorvall RC5C Plus) and S-tag pull down was done according to manufacturer's protocol. GST-tagged Mitofilin was expressed in bacteria and gel-purified as previously described (27).

[3] = test system: MDA231 and SK-Mel-103 cells; assay: MTT assay, chemosensitivity of CHCM1/CHCHD6 knockdown cells; type: cell-based, human; settings: Adria 3 μM for MDA231, 1 μM for SK-Mel-103, 24 hr; knockdown vs scramble (FIG. 6A)
From the text: (§3) Endogenous CHCM1/CHCHD6 and Mitofilin were knocked-down by lentiviral shRNA-mediated approach (28). The pLKO.1 lentiviral vectors containing the scrambled or CHCM1/CHCHD6-specific shRNAs or Mitofilin-specific shRNAs were generated by The RNA interference Consortium and purchased from Open Biosystems (Huntsville, Ala.). Lentiviruses were produced and titered according to the supplier's protocols. In all experiments, the multiplicity of infection (M.O.I.) was 1.0. Five shRNAs to target five different regions of CHCM1/CHCHD6 were used. Artificial DNA sequences coding for shRNAs are as follows. The first part of the sequence is in sense orientation then loop (underlined) followed by antisense sequence:
(§4) MTT powder (MTT, Methylthiazolyldiphenyl-tetrazolium bromide, available from Sigma-Aldrich, St. Louis, Mo., Cat. No. M2128) was dissolved in DMEM without fetal bovine serum and phenol red to a final concentration of 1 mg/ml and then added to cells and incubated for ˜1-4 hrs depending on cell confluency. Medium was then removed and equal volume of isopropanol with 0.04N HCl was added to dissolve the precipitate. Finally, absorbance was read at 570 nm wavelength subtracting background reading at 650 nm wavelength with a Bio-Rad Smart-Spec 3100 instrument.

[4] = test system: RKO cells stably expressing exogenous CHCM1/CHCHD6; assay: MTT assay, chemosensitivity of cells stably overexpressing CHCM1/CHCHD6; type: cell-based, human; settings: etoposide 30 μM for 48 hr; clones C3 and C4 vs vector (FIG. 6B)
From the text: For stable transfections, expression vector pcDNA3.1 carrying HA/S-tagged CHCM1/CHCHD6 was used. The same vector without CHCM1/CHCHD6 insert was used for control transfection. RKO human colon cancer cells were transfected with these vectors using Lipofectamine 2000 (Invitrogen, Carlsbad, Calif.) and G418-resisitant colonies selected after approximately 2 weeks. Several independent colonies were picked up and expanded into mass culture and screened for the expression of exogenous CHCM1/CHCHD6. Several vector-only transfected colonies were also isolated, pooled and expanded into mass culture. CHCM1/CHCHD6 expressing clones B4, C3 and C4 were selected for further studies.
as §4

CHCM1/CHCHD6 mRNA [5] = assay: Lentiviral shRNA knockdown of endogenous CHCM1/CHCHD6 (Northern and Western blot); type: cell-based; settings: RKO human colon and MCF-7 breast cancer cells; M.O.I. 1.0 (FIG. 5A)
Procedure: as §1, §2
as §3, with “sequence: […]” for “sequence:”

[6] = test system: RKO, MCF7 and MDA231 cell lines; assay: MTT assay, cell growth in CHCM1/CHCHD6 knockdown cells; type: cell-based, human; settings: knockdown vs scramble, MCF7, MDA231 (FIG. 5B)
From the text: as §3, §4

melanoma cells = assay: MTT assay, cell growth in CHCM1 knockdown melanoma cells; type: cell-based, human; settings: knockdown vs scramble; melanoma cells (FIG. 24)
From the text: as §3, §4

RKO cells [7] = assay: Transmission electron microscopy of mitochondrial cristae, RKO; type: cell-based, human; settings: CHCM1/CHCHD6 knockdown
From the text: as §3
Scramble and CHCM1/CHCHD6 knockdown cells were harvested and fixed by Ito and Karnovsky's fixative (2.5% glutaraldehyde, 2% paraformaldehyde in 0.1 M cacodylate buffer, pH 7.4) at 4° C. overnight (29). The next day cells were rinsed with 0.1 M cacodylate buffer for 5 times, 5 min each. After fixing with 1% osmium tetroxide in 0.1 M cacodylate buffer for 1 hr on ice, the samples were rinsed with double-distilled H2O for 3 times, 8 min each and later fixed with 1% Tannic acid for 1 hr. After rinsing with double-distilled H2O for additional 3 times 8 min each, samples were dehydrated and embedded into Poly/Bed® 812 according to the protocol of Poly/Bed® 812 BDMA Mini-kit (Polyscience, Inc., Warrington, Pa.). Poly/Bed®-embedded cells were cut into 80-90 nm ultrathin serial sections by a diamond knife-DIATOME 45 degree (Diatome U S, Hatfield, Pa.). Sections were supported on nickel grids/200 mesh (Electron Microscopy Sciences, Hatfield, Pa.) and post-stained in 4% uranyl acetate and 4% lead citrate. Finally sections were observed under Tecnai™ Transmission Electron Microscope (BioTwin lens) with Advantage Plus CCD Camera System at an 80.0-kV acceleration voltage.

MCF7 cells = assay: Transmission electron microscopy of mitochondrial cristae, MCF7; type: cell-based, human; settings: CHCM1/CHCHD6 knockdown
From the text: as §3
Scramble and CHCM1/CHCHD6 knockdown cells were harvested and fixed by Ito and Karnovsky's fixative (2.5% glutaraldehyde, 2% paraformaldehyde in 0.1 M cacodylate buffer, pH 7.4) at 4° C. overnight (29). The next day cells were rinsed with 0.1 M cacodylate buffer for 5 times, 5 min each. After fixing with 1% osmium tetroxide in 0.1 M cacodylate buffer for 1 hr on ice, the samples were rinsed with double-distilled H2O for 3 times, 8 min each and later fixed with 1% Tannic acid for 1 hr. […]

RKO cells [8] = assay: Mitochondrial ATP synthesis assay (luciferase-based); type: cell-based, human; settings: RKO knockdown vs scramble cells; p<0.05 (FIG. 11A)
Procedure: Mitochondrial ATP synthesis assay was performed as reported previously (30). Briefly, CHCM1/CHCHD6 knockdown or scramble knockdown RKO cells were harvested, washed with glucose-free, serum free DMEM. Each sample with approximately 1.5×10^6 cells were re-suspended and incubated in 160 μl of buffer A (150 mM KCl, 25 mM Tris-HCl, 2 mM EDTA, 0.1% BSA, 10 mM potassium phosphate, pH 7.4, 0.1 mM MgCl2) with digitonin (40 μg/ml final concentration) for 1 min at room temperature. After a wash with buffer A, cells were centrifuged at 800×g at room temperature and pellets were re-suspended in 160 μl buffer A containing P^1, P^5-di (adenosine) pentaphosphate (0.15 mM). Subsequently, 10 μl of buffer B (0.5 M Tris-acetate, pH 7.75, 0.8 mM luciferin, 20 μg/ml luciferase), ADP (to 0.1 mM), malate and pyruvate (both to 1 mM) were added to the cell suspension. Oligomycin (1 μg/ml) was also added to one replicate of each sample prepared as above. Cells were transferred to a luminometer glass tubes and gently mixed with a vortex for 2 sec. Tubes were then placed in a luminometer (LUMAT LB 9507, Berthold Technologies, Germany) and light emission was recorded in the kinetic mode. The integration time for each reading was 1 sec. Interval between readings was 15 sec and a total recording time was 4 min. Finally, total cellular protein content of each sample was determined.

RKO cells [9] = assay: Oxygen consumption rate measurement; type: cell-based, human; settings: RKO knockdown vs scramble cells; p<0.05 (FIG. 11B)
Procedure: Intact cell oxygen consumption rate was measured by an Oxygraph system with DW1 Oxygen Electrode (Hansatech Instruments Ltd., Norfolk, U. K.) as described previously (30). Briefly, RKO cells with CHCM1/CHCHD6 knockdown or scramble knockdown were harvested by trypsinization and centrifugation at 2500 rpm. Approximately 1.5×10^6 cells were re-suspended in 300 μl growth medium for each sample and injected into the polarographic chamber for the intact cell-coupled oxygen consumption rate.

[10] = multiple human cancer cell lines, etoposide 30 μM, ADRIAMYCIN 1.0 μM, 24 hr (FIG. 4C)
[11] = various human breast cancer cell lines (FIG. 23)
[12] = RKO cells, respiratory chain inhibitors, 24 hr or antimycin A 1 μg/ml, rotenone 0.1 μg/ml for various time points (FIGS. 12A-B)
[13] = RKO human colon cancer cells, ADRIAMYCIN 0.5 μM (FIG. 4B)

COc1cc([C@@H]2c3cc4c(cc3[C@@H](O[C@@H]3O[C@@H]5CO[C@@H](C)O[C@H]5[C@H](O)[C@H]3O)[C@H]3COC(=O)[C@H]23)OCO4)cc(OC)c1O [etoposide]
CHCM1/CHCHD6 mRNA expression (CHCM1/CHCHD6 mRNA [1]; multiple human cancer cell lines, etoposide 30 μM for 24 hr, Northern blot (FIG. 4A)): strongly down-regulated | CHCM1/CHCHD6 protein levels [2, 10]: down-regulated | CHCM1 protein level [2, 11]: down-regulate | drug-mediated chemosensitivity in CHCM1/CHCHD6 knockdown cells (cell viability, MTT) [3]: further increased | etoposide-mediated chemosensitivity in cells overexpressing CHCM1/CHCHD6 (cell viability, MTT) [4]: reduced

G7: lentiviral pLKO.1 CHCM1/CHCHD6-specific shRNA, SEQ ID NO: 6 (CTTTGGCCTTCAAGATGGCAACTCGAGTTGCCATCTTGAAGGCCAAAGT)
knockdown of endogenous CHCM1/CHCHD6 at mRNA and protein levels (CHCM1/CHCHD6 mRNA [5]): effectively knocked down

antimycin A
CHCM1/CHCHD6 protein levels [2, 12]: did not appreciably affect

G5: lentiviral pLKO.1 CHCM1/CHCHD6-specific shRNA, SEQ ID NO: 4 (CCTGAAGAAGGGACCAATCATCTCGAGATGATTGGTCCCTTCTTCAGGT)
knockdown of endogenous CHCM1/CHCHD6 at mRNA and protein levels (CHCM1/CHCHD6 mRNA [5]): effectively knocked down

COc1cccc2c1C(=O)c1c(O)c3c(c(O)c1C2=O)C[C@@](O)(C(=O)CO)C[C@@H]3O[C@H]1C[C@H](N)[C@H](O)[C@H](C)O1 [ADRIAMYCIN®, doxorubicin]
time by which CHCM1/CHCHD6 mRNA expression was reduced (CHCM1/CHCHD6 mRNA [1]; [13]): ≤ 12 h | time post-treatment until which mRNA down-regulation was maintained (CHCM1/CHCHD6 mRNA [1]; [13]): 60 h | CHCM1/CHCHD6 protein levels [2, 10]: down-regulated | CHCM1 protein level [2, 11]: down-regulate | drug-mediated chemosensitivity in CHCM1/CHCHD6 knockdown cells (cell viability, MTT) [3]: further increased

C=C(C)[C@H]1Cc2c(ccc3c2O[C@@H]2COc4cc(OC)c(OC)cc4[C@@H]2C3=O)O1 [rotenone]
CHCM1/CHCHD6 protein levels [2, 12]: did not appreciably affect

G8: lentiviral pLKO.1 CHCM1/CHCHD6-specific shRNA, SEQ ID NO: 7 (GCTGAGATGTATAAACTGTCTCTCGAGAGACAGTTTATACATCTCAGCT)
knockdown of endogenous CHCM1/CHCHD6 at mRNA and protein levels (CHCM1/CHCHD6 mRNA [5]): effectively knocked down | cell growth (MTT) [6]: reduces cell growth | cell growth (MTT) (melanoma cells): growth inhibition | Abnormal Mitochondria devoid or nearly devoid of cristae structures, Experiment 1 (RKO cells [7]): 55.6% | Abnormal Mitochondria devoid or nearly devoid of cristae structures, Experiment 2 (RKO cells [7]): 70.5% (74/105) | Abnormal Mitochondria devoid or nearly devoid of cristae structures, Experiment 1 (MCF7 cells): 65.2% | cellular ATP production (RKO cells [8]): affects cellular ATP production | oxygen consumption rate (RKO cells [9]): affects oxygen consumption rate

G4: lentiviral pLKO.1 CHCM1/CHCHD6-specific shRNA, SEQ ID NO: 3 (GAGCGTATTGAGAGGAAGAATCTCGAGATTCTTCCTCTCAATACGCTCT)
knockdown of endogenous CHCM1/CHCHD6 at mRNA and protein levels (CHCM1/CHCHD6 mRNA [5]): effectively knocked down | cell growth (MTT) [6]: reduces cell growth | cell growth (MTT) (melanoma cells): growth inhibition | Abnormal Mitochondria devoid or nearly devoid of cristae structures, Experiment 1 (RKO cells [7]): 17.8% | Abnormal Mitochondria devoid or nearly devoid of cristae structures, Experiment 1 (MCF7 cells): 58.3% | cellular ATP production (RKO cells [8]): affects cellular ATP production | oxygen consumption rate (RKO cells [9]): affects oxygen consumption rate

N.N.[Cl][Pt][Cl] [Cisplatin]
CHCM1 protein level ([2]; UACC-62 melanoma cells, 24 hrs (FIG. 22)): downregulates

G6: lentiviral pLKO.1 CHCM1/CHCHD6-specific shRNA, SEQ ID NO: 5 (GCATGCTGCTATCCAGGATAACTCGAGTTATCCTGGATAGCAGCATGCT)
knockdown of endogenous CHCM1/CHCHD6 at mRNA and protein levels (CHCM1/CHCHD6 mRNA [5]): effectively knocked down

From patent publication US9945863B2, “Coiled coil helix cristae morphology 1 (CHCM1) tumor marker and cancer therapeutic target” (The Research Foundation of State University of New York, priority 2012, dated 2018)
